Assay results from patent publication US20060089335A1, “Compositions and methods for enhancing cognitive function and synaptic plasticity” (priority 2003, published 2006).
“Also recorded” adds a separate entry of the source.

Experiments:
NR2A = assay: quantitative Western blotting of hippocampal homogenate; details: rat, in vivo
Protocol: (§1) Quantitative Western blotting. Samples of hippocampal homogenate (10 ug/sample) were resolved on polyacrylamide gels, transferred to PVDF, and probed with anti-NR1 (Chemicon), NR2A (Upstate) or NR2B (Santa Cruz Biotech), GluR1 (Chemicon), Synapsin1 (American Qualex), or PSD-95 (Upstate) antibody followed by the appropriate secondary antibody coupled to horseradish peroxidase (1:10,000, Santa Cruz Biotech) in Tris-buffered saline (pH 7.3) containing 5% dry milk and 0.1% Tween (BioRad). Visualization of immunoreactive bands was achieved by enhanced chemiluminescence (Perkin Elmer Biosciences) and captured on autoradiography film (Kodak Scientific). Standard curves, in which the amount of protein was varied systematically, were constructed to establish that we operated within the linear range of the chemiluminescence detection method. In addition, each immunoblot was exposed to autoradiography film multiple times (average 7; minimum 5) for varying duration to make sure we operated in the linear range of the film for each experiment. Digital images, produced by scanning films on a Epson 3200 Scanner (Epson) with Epson Scan Software (Epson), were quantified using GelPro Analyzer 3.1 software. The integrated optical density (IOD) of each immunoreactive band from hippocampal samples relative to baseline measured immediately above and below the band in the same lane, and normalized by the actin or neurofilament band also in the same lane. Group data (eight animals per group) are represented as the mean+/−SEM of the IOD of samples.

NR1 = assay: as above; details: rat, in vivo
Protocol: as §1

synapsin1 = assay: as above; details: rat, in vivo
Protocol: as §1

[1] = test system: postsynaptic locations of cultured hippocampal neurons; assay: postsynaptic evoked current response to iontophoretic glutamate (AMPA-R insertion); format: cell-based, rat
Description: These were generally as described in the preceding examples. Glutamatergic iontophoresis was perfomed as described [Murnick 2000].
Since we wished to correlate the above pre-synaptic findings to the plasticity of single or small clusters of postsynaptic locations, this ruled out traditional double-patch plasticity experiments in which heterogeneous populations of connections are studied. Such studies also usually confound pre-synaptic and postsynaptic effects. For this purpose, we developed a technique of high-temporal and spatial resolution glutamatergic iontophoresis that allows us to stimulate single or small clusters of postsynaptic locations (resolution ˜2 μm, 1 ms; [Murnick 2000]).
To determine whether a decrease in overall activity of a neural network leads to increased plasticity (i.e., an increase in synaptic strength in response to a pattern of stimulation) of postsynaptic locations, we assessed the effect of treatment with Mg^++ on the ability of postsynaptic locations to respond to glutamate. As described above, Mg^++ blocks the NMDA receptor channel at resting membrane potential, so Mg^++ treatment reduces the overall activity level of the neural network. As also described above, increases in postsynaptic intracellular Ca^++ stimulated by activation of NMDA receptors leads to recruitment of AMPA receptors and their insertion into the postsynaptic membrane. […]

[2] = test system: cultured hippocampal neurons; assay: field EPSC (fEPSC) recording before and after TBS; format: cell-based, rat
Protocol: Electrophysiology. Dual whole cell perforated patch clamp recordings were made on two interconnected cultured hippocampal pyramidal neurons. Perforated patch pipettes were front-filled with a solution containing (in mM): CsOH, 127; D-gluconic acid, 127; CsCl, 4; HEPES, 10; NaCl, 8; EGTA, 0.4; pH was adjusted to 7.25 with CsOH, and then back-filled with the same solution containing […] amphotericin B (Sigma, St. Louis, Mo.). Extracellular solution contained (in mM): NaCl, 145; KCl, 3; glucose, 15; HEPES, 10; MgCl2, 0.8-1.2; CaCl2, 1.2; 0.005 glycine (Sigma), 0.05 picrotoxin (Sigma); pH adjusted to 7.4 with NaOH. MgCl2 concentration was matched to its concentration in culture medium. In experiments where effects of drugs on neuronal activity were quantified (FIG. 4D), recordings were done in culture medium (with HEPES replacing bicarbonate/CO2 to maintain pH). All experiments were performed at room temperature. For assaying synaptic connectivity, each neuron was stimulated by 1 ms step depolarization from −70 to +30 mV in voltage-clamp mode. Only neurons with monosynaptic connections were used. […] Recordings with access resistance>20 MΩ or that varied substantially were rejected from analysis.
To confirm that such a prominent TBS-induced increase in Pr does contribute to the enhancement of total synaptic strength, the magnitude of potentiation was tested electrophysiologically by sampling field EPSCs (fEPSCs) before and after TBS. The whole cell recording was obtained under perforated patch configuration to avoid wash-out of the intracellular components critical for synaptic plasticity. The membrane potential was clamped at −70 mV and EPSCs were evoked by field stimulation at a sampling frequency of 0.03 Hz. [Mg^2+]o during sampling was 4 mM to reduce background neural activity. The intensity of field stimulation was adjusted to produce a half maximal fEPSC amplitude. After 30 minutes of sampling were employed to determine the baseline level of synaptic strength, the bath solution was changed to 1.2 mM [Mg^2+]o and the recording configuration to current-clamp mode to allow for membrane voltage fluctuations. TBS was delivered at the same amplitude and temporal profiles as for the FM experiments.

[3] = rat, in vivo

With `[Mg+2]` [Mg^++] the “change of NR2A” value (NR2A) was “no significant changes”, the “change of NR1” value (NR1) was “no significant changes” and the “change of synapsin1” value (synapsin1) was “no significant changes”. The “postsynaptic evoked current response to glutamate (AMPA-R insertion)” value [1] was “showed significant levels of AMPA-R insertion; also recorded: increased current amplitude over time”, the “TBS-induced increase in fEPSC amplitude” value [2] was 2.7 fold and the “duration of fEPSC increase” value [2] was “at least 1.5 hours”. The fEPSC2/fEPSC1 [2] was 2.7±0.6, the “increase of synaptic strength after TBS induction, average” value [2] was 2.7 fold and the “time to maximum of fEPSC increase after TBS” value [2] was roughly 10 min. The “general status of the rats (body weight, mobility)” value [3] was “did not observe any significant change in the general status”.
